Results reported in patent publication US11352340B2, “Pyridine and pyridimine compounds as PI3K-gamma inhibitors” (Incyte Corporation, priority 2016, dated 2022).
Where a name gives a salt, the structure may show the parent alone.

Tests used:
[1] = biological target: PI3Kγ (p110γ) Recombinant Human Protein (Homo sapiens (Human), UniProt P48736); assay: PI3K-γ Scintillation Proximity Assay; type: biochemical; details: read-out: PI3K-gamma SPA IC50
Excerpt: Example B. PI3K-γ Scintillation Proximity Assay
(§1) [γ-^33P]ATP (10 mCi/mL) and Wheat Germ Agglutinin (WGA) YSi SPA Scintillation Beads was purchased from Perkin-Elmer (Waltham, Mass.). Lipid kinase substrate, D-myo-Phosphatidylinositol 4,5-bisphosphate (PtdIns(4,5)P2)D (+)-sn-1,2-di-O-octanoylglyceryl, 3-O-phospho linked (PIP2), CAS 204858-53-7, was purchased from Echelon Biosciences (Salt Lake City, Utah). PI3Kγ (p110γ) Recombinant Human Protein was purchased from Life technology (Grand Island, N.Y.). ATP, MgCl2, DTT, EDTA, MOPS and CHAPS were purchased from Sigma-Aldrich (St. Louis, Mo.).
(§2) The kinase reaction was conducted in polystyrene 384-well Greiner Bio-one white plate from Thermo Fisher Scientific in a final volume of 25 μL. Inhibitors were first diluted serially in DMSO and added to the plate wells before the addition of other reaction components. The final concentration of DMSO in the assay was 2%. The PI3Kγ assay was carried out at room temperature in 20 mM MOPS, pH 6.7, 10 mM MgCl2, 5 mM DTT and CHAPS 0.03%. Reactions were initiated by the addition of ATP, the final reaction mixture consisted of 20 μM PIP2, 2 μM ATP, 0.5 μCi [γ-^33P] ATP, 13 nM PI3Kγ. Reactions were incubated for 120 min and terminated by the addition of 40 μL SPA beads suspended in quench buffer: 163 mM potassium phosphate pH 7.8, 20% glycerol, 25 mM EDTA. The final concentration of SPA beads is 1.0 mg/mL. After the plate sealing, plates were shaken overnight at room temperature and centrifuged at 1500 rpm for 10 min, the radioactivity of the product was determined by scintillation counting on Topcount (Perkin-Elmer). IC50 determination was performed by fitting the curve of percent of the solvent control activity versus the log of the inhibitor concentration using the GraphPad Prism 6.0 software.

[2] = biological target: PI3Kδ (p110δ/p85α) Recombinant Human Protein (Homo sapiens (Human), UniProt O00329); assay: PI3Kδ Scintillation Proximity Assay; type: biochemical; details: read-out: PI3K-delta SPA IC50
PI3Kδ (p110δ/p85α) Recombinant Human Protein, sequence (O00329 whole entry): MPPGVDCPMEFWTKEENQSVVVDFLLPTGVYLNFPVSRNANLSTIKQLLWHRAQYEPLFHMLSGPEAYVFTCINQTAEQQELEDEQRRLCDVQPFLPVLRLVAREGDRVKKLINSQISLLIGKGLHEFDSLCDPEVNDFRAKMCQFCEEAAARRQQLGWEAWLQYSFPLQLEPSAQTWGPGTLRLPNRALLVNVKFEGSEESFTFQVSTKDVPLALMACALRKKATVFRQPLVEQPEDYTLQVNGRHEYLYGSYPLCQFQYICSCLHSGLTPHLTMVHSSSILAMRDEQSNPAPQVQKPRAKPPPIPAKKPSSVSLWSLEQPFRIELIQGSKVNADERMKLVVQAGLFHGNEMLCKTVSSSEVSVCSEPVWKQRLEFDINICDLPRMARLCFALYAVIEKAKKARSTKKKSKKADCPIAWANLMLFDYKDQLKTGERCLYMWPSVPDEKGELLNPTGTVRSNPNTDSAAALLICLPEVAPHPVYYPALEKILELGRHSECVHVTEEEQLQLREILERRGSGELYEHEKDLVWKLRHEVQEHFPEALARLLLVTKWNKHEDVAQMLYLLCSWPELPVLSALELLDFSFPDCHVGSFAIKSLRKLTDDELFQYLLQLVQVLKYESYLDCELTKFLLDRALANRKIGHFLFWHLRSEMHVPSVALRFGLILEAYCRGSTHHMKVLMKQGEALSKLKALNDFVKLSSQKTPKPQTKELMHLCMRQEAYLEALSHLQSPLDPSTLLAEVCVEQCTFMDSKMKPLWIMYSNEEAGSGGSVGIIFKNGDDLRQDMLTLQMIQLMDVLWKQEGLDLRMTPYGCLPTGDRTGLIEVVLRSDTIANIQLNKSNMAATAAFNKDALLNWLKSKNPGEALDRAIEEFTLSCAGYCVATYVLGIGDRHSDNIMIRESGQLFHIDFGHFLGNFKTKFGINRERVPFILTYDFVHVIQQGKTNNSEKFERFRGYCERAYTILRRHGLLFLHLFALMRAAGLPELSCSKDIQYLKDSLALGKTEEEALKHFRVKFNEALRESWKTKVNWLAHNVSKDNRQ
PI3Kδ (p110δ/p85α) Recombinant Human Protein, sequence (P27986 whole entry partner): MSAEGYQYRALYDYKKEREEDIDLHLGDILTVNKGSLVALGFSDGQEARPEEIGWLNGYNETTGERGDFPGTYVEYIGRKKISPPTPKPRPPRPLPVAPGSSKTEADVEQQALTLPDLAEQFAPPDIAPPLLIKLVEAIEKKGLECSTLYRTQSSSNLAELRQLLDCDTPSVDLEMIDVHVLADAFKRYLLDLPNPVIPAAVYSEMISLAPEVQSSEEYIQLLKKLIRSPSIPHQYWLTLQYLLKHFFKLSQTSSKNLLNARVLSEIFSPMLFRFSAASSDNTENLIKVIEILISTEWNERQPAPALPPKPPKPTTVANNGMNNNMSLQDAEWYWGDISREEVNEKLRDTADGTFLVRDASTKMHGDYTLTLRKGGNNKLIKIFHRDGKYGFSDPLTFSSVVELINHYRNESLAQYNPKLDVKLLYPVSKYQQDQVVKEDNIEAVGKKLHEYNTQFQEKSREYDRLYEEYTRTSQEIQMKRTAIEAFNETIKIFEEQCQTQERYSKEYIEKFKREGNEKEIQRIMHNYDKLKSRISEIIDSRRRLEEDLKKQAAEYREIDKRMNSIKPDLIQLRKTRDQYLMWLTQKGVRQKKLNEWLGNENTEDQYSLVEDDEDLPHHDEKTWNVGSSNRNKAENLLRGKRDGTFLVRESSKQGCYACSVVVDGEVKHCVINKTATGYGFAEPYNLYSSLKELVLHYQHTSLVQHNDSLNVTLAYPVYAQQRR
Excerpt: Example C. PI3Kδ Scintillation Proximity Assay
as §1, with “PI3Kδ (p110δ/p85α)” for “PI3Kγ (p110γ)”, “Eurofins (St Charles, Mo.).” for “Life technology (Grand Island, N.Y.).”
as §2, with “PI3Kδ” for “PI3Kγ”, “3.4” for “13”, “PI3Kδ.” for “PI3Kγ.”

PI3Kγ (p110γ) Recombinant Human Protein, sequence (P48736 whole entry): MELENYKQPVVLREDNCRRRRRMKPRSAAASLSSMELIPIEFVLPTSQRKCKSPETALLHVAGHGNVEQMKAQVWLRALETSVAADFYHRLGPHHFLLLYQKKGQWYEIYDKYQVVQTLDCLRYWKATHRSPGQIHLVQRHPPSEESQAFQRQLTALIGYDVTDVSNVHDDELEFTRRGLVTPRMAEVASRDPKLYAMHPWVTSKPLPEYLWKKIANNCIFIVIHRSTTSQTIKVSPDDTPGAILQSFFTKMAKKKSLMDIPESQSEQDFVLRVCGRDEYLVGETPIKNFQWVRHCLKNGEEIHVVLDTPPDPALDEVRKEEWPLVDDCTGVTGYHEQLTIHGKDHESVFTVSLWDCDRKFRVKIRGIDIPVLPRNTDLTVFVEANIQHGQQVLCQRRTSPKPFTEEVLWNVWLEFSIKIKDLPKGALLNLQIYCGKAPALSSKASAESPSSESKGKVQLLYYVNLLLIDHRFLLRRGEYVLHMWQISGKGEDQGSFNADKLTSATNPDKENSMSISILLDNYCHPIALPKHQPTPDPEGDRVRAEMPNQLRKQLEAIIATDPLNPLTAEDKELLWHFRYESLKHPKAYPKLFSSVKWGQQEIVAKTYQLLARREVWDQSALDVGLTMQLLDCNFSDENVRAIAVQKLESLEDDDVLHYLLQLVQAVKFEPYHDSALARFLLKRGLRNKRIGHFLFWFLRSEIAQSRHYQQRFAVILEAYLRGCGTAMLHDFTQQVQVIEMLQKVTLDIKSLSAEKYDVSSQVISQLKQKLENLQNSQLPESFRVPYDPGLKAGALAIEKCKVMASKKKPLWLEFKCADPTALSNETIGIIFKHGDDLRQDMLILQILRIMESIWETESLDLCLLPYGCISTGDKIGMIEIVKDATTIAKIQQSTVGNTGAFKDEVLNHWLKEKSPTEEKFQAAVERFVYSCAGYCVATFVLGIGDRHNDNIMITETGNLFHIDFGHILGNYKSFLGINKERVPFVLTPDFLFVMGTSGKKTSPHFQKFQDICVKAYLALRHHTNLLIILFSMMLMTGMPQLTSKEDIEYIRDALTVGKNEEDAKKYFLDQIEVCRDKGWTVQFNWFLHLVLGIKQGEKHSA

IC50 [1] [nM]	IC50 [2] [nM]	SMILES
≤ 500	> 500	COC(=O)c1ccc(Cn2cc(-c3ccnc(-c4ncc(-c5ccccc5)[nH]4)c3)cn2)cc1 [Example 32, Methyl 4-((4-(2-(5-phenyl-1H-imidazol-2-yl)pyridin-4-yl)-1H-pyrazol-1-yl)methyl)benzoate trifluoroacetate salt]
≤ 500	≤ 50	Cc1[nH]c(-c2cc(-c3cncc(N4CCOCC4)c3)ccn2)nc1Nc1ccnnc1 [Example 308, N-[5-Methyl-2-(5-morpholin-4-yl-3,4′-bipyridin-2′-yl)-1H-imidazol-4-yl]pyridazin-4-amine trifluoroacetate salt]
> 500	> 500	Cc1nc(-c2cc(C3=CCN(S(C)(=O)=O)C3)ccn2)[nH]c1C [Example 227, 2-(4,5-Dimethyl-1H-imidazol-2-yl)-4-(1-(methylsulfonyl)-2,5-dihydro-1H-pyrrol-3-yl)pyridine trifluoroacetate salt]
≤ 100	≤ 500	Cc1nc(-c2cc(-c3cncc(C(=O)N[C@@H]4CCOC4)c3)ccn2)[nH]c1C [Example 176, 2′-(4,5-Dimethyl-1H-imidazol-2-yl)-N-[(3R)-tetrahydrofuran-3-yl]-3,4′-bipyridine-5-carboxamide trifluoroacetate salt]
> 500	> 500	Cn1ccnc1-c1ccnc(-c2ncc(-c3ccccc3)[nH]2)c1 [Example 16, 4-(1-Methyl-1H-imidazol-2-yl)-2-(5-phenyl-1H-imidazol-2-yl)pyridine trifluoroacetate salt]
> 500	> 500	NC(=O)Cn1cc(-c2ccnc(-c3ncc(-c4ccccc4)[nH]3)c2)cn1 [Example 48, 2-(4-(2-(5-Phenyl-1H-imidazol-2-yl)pyridin-4-yl)-1H-pyrazol-1-yl)acetamide trifluoroacetate salt]
≤ 100	≤ 50	COC1CN(C(=O)c2nc(-c3cc(-c4cncc(N5CCOCC5)c4)ccn3)[nH]c2C)C1 [Example 263, 2′-{4-[(3-Methoxyazetidin-1-yl)carbonyl]-5-methyl-1H-imidazol-2-yl}-5-morpholin-4-yl-3,4′-bipyridine]

Further lines, the compound ahead of its results:

SMILES	IC50 [1] [nM]	IC50 [2] [nM]
Cc1nc(-c2cc(-c3cncc(C(=O)N4CCC(O)(Cc5ccccc5)CC4)c3)ccn2)[nH]c1C [Example 196, 4-Benzyl-1-{[2′-(4,5-dimethyl-1H-imidazol-2-yl)-3,4′-bipyridin-5-yl]carbonyl}piperidin-4-ol trifluoroacetate salt]	≤ 500	≤ 50
Cc1nc(-c2cc(-c3cncc(NCC4CCOCC4)c3)ccn2)[nH]c1C [Example 145, 2′-(4,5-Dimethyl-1H-imidazol-2-yl)-N-(tetrahydro-2H-pyran-4-ylmethyl)-3,4′-bipyridin-5-amine]	≤ 50	≤ 500
COC(=O)c1cccc(Cn2cc(-c3ccnc(-c4ncc(-c5ccccc5)[nH]4)c3)cn2)c1 [Example 31, Methyl 3-((4-(2-(5-phenyl-1H-imidazol-2-yl)pyridin-4-yl)-1H-pyrazol-1-yl)methyl)benzoate trifluoroacetate salt]	≤ 500	> 500
Cc1[nH]c(-c2cc(-c3cncc(N4CCOCC4)c3)ccn2)nc1CN1CCOCC1 [Example 292, 2′-[5-Methyl-4-(morpholin-4-ylmethyl)-1H-imidazol-2-yl]-5-morpholin-4-yl-3,4′-bipyridine]	≤ 500	≤ 100
Cc1nc(-c2cc(C3=CCN(CC4CCOCC4)C3)ccn2)[nH]c1C [Example 230, 2-(4,5-Dimethyl-1H-imidazol-2-yl)-4-(1-((tetrahydro-2H-pyran-4-yl)methyl)-2,5-dihydro-1H-pyrrol-3-yl)pyridine trifluoroacetate salt]	> 500	> 500
N#CCCn1cc(-c2ccnc(-c3ncc(-c4ccccc4)[nH]3)c2)cn1 [Example 52, 3-(4-(2-(5-Phenyl-1H-imidazol-2-yl)pyridin-4-yl)-1H-pyrazol-1-yl)propanenitrile trifluoroacetate salt]	> 500	≤ 500
Cc1nc(-c2cc(-c3cncc(C(=O)NCCCN(C)C)c3)ccn2)[nH]c1C [Example 149, 2′-(4,5-Dimethyl-1H-imidazol-2-yl)-N-(3-(dimethylamino)propyl)-3,4′-bipyridine-5-carboxamide]	≤ 100	> 500
CC(=O)N1CCC(c2c[nH]c(-c3cc(-c4cnn(Cc5ccc(Cl)cc5)c4)ccn3)n2)C1 (stereo not drawn) [Example 303, 2-[4-(1-Acetylpyrrolidin-3-yl)-1H-imidazol-2-yl]-4-[l-(4-chlorobenzyl)-1H-pyrazol-4-yl]pyridine trifluoroacetate salt]	≤ 500	> 500
Cc1[nH]c(-c2cc(-c3cncc(N4CCOCC4)c3)ccn2)nc1C(=O)N(C)C(C)C [Example 259, N-Isopropyl-N,5-dimethyl-2-(5-morpholin-4-yl-3,4′-bipyridin-2′-yl)-1H-imidazole-4-carboxamide]	≤ 500	≤ 500
CC(=O)N1CCC=C(c2ccnc(-c3nc(C)c(C)[nH]3)c2)C1 [Example 219, 1-(3-(2-(4,5-Dimethyl-1H-imidazol-2-yl)pyridin-4-yl)-5,6-dihydropyridin-1(2H)-yl)ethanone trifluoroacetate salt]	> 500	> 500
N#Cc1cccc(Cn2cc(-c3ccnc(-c4ncc(-c5ccccc5)[nH]4)c3)cn2)c1 [Example 20, 3-((4-(2-(5-Phenyl-1H-imidazol-2-yl)pyridin-4-yl)-1H-pyrazol-1-yl)methyl)benzonitrile trifluoroacetate salt]	≤ 500	> 500
Cc1nc(-c2cc(-c3cncc(Cl)c3)ccn2)[nH]c1C [Example 234, 5-Chloro-2′-(4,5-dimethyl-1H-imidazol-2-yl)-3,4′-bipyridine]	≤ 100	≤ 100
Cc1nc(-c2cc(-c3cncc(C(=O)N4CCCN(C)CC4)c3)ccn2)[nH]c1C [Example 200, 2′-(4,5-Dimethyl-1H-imidazol-2-yl)-5-[(4-methyl-1,4-diazepan-1-yl)carbonyl]-3,4′-bipyridine]	≤ 500	≤ 500
CS(=O)(=O)N1CCC(c2c[nH]c(-c3cc(-c4cnn(Cc5ccc(Cl)cc5)c4)ccn3)n2)C1 (single isomer, unassigned) [Example 304, 4-[1-(4-Chlorobenzyl)-1H-pyrazol-4-yl]-2-{4-[1-(methylsulfonyl)pyrrolidin-3-yl]-1H-imidazol-2-yl}pyridine trifluoroacetate salt]	≤ 100	≤ 500
Cc1[nH]c(-c2cc(-c3cncc(N4CCOCC4)c3)ccn2)nc1CNC(C)C [Example 285, N-{[5-Methyl-2-(5-morpholin-4-yl-3,4′-bipyridin-2′-yl)-1H-imidazol-4-yl]methyl}propan-2-amine]	> 500	≤ 500
COc1cncc(-c2ccnc(-c3nc(C)c(NC(C)=O)[nH]3)c2)c1 [Example 75, N-[2-(5-Methoxy-3,4′-bipyridin-2′-yl)-4-methyl-1H-imidazol-5-yl]acetamide]	> 500	> 500
NC(=O)CCn1cc(-c2ccnc(-c3ncc(-c4ccccc4)[nH]3)c2)cn1 [Example 53, 3-(4-(2-(5-Phenyl-1H-imidazol-2-yl)pyridin-4-yl)-1H-pyrazol-1-yl)propanamide]	> 500	> 500
